Measurements published in US20070105825A1, “Concurrent drugs” (priority 2004, published 2007).

How the values were obtained:
whole blood = assay: Improvement effect on activated state of blood coagulation (activated whole blood clotting time, Hemochron); format: cell-based, rabbit (Japanese White, male); details: rabbit whole blood; for significant prolonged effect on the activated whole blood clotting time to the control: independent use, 1 μM; for activated clotting time (mean ± S.E.): single application, antiplatelet drug 1 μM, control 218 ± 5.1
Description: Citrate blood collected from a rabbit (Japanese White, male) was used for the test as the whole blood after maintaining room temperature for 30-60 minutes. 376 μL of the whole blood, 4 μL of a dimethylsulfoxide and 20 μL of a 250 mM calcium chloride solution were poured into a test tube for measurement of activated whole blood clotting time (Hemochron test tube P214, International Technidyne Corporation). After slight stirring of the mixture, an activated whole blood clotting time was measured by a blood clotting meter (Hemochron 801, International Technidyne Corporation) as the control.

[1] = system: thrombus formation in abdominal aorta of rats; assay: Inhibitory effect on thrombus formation (FeCl2-induced abdominal aorta thrombus, total protein content); format: in vivo, rat (Sprague-Dawley, male); details: rat; for significant inhibitory effects on the thrombus formation compared with group A as control: alone: cilostazol 100 mg/kg oral or compound Id 3 mg/kg subcutaneous; for Total protein amount in thrombus: single application, control 1.52 ± 0.39
Description: Rats (Sprague-Dawley rats, male) were divided into four groups of A, B, C and D. 0.5% methylcellulose solution was orally administrated into the rats of groups A and B, and cilostazol (100 mg/kg) was orally administrated into the rats of groups C and D. […] Simultaneously, the all rats of groups A-D were anesthetized by intraperitoneal injection of 5 mL/kg of 20% urethane solution. […] After removing of the filter paper, each rat was left at rest for additional 25 minutes. Then, the abdominal aorta was ligated at both upper and lower ends of the thrombus induction site. All the thrombus adhering to the inside of the excised abdominal aorta were harvested and dissolved in 1 mL of 0.5 N sodium hydroxide solution as the test solution. The total protein content in the test solution was measured using Coomasie Plus Protein Assay Kit (PIERCE Corp.) as the index of the thrombus formation.

| Compound | significant prolonged effect on the activated whole blood clotting time to the control (whole blood) | activated clotting time (mean ± S.E.) (whole blood) | significant inhibitory effects on the thrombus formation compared with group A as control [1] | Total protein amount in thrombus ([1]; cilostazol 100 mg/kg oral, n=3) | Total protein amount in thrombus ([1]; compound Id 3 mg/kg subcutaneous, n=4) |
| --- | --- | --- | --- | --- | --- |
| CC(=O)Oc1ccccc1C(=O)O [Aspirin, aspirin] | showed a significant prolonged effect | 215 ± 16.3 s | – | – | – |
| O=C1CCc2cc(OCCCCc3nnnn3C3CCCCC3)ccc2N1 [Cilostazol, cilostazol] | showed a significant prolonged effect | 205 ± 5.8 s | not observed | 1.39 ± 0.45 mg | – |
| CS(=O)(=O)c1ccccc1-c1ccc(CCNS(=O)(=O)c2cc(C(=N)N)ccc2O)c(OCC(=O)O)c1 [Compound Id] | – | – | not observed | – | 0.94 ± 0.30 mg |
| OCCN(CCO)c1nc(N2CCCCC2)c2nc(N(CCO)CCO)nc(N3CCCCC3)c2n1 [Dipyridamole, dipyridamole] | showed a significant prolonged effect | 210 ± 10.9 s | – | – | – |
